Measurements: US20240299420A1, “TETRACYCLINE DERIVATIVE-INDUCED MITOHORMESIS MEDIATES DISEASE TOLERANCE AGAINST VIRAL INFECTIONS” (priority 2021, published 2024)
Entries after “also recorded” stand apart in the source; their conditions may differ.

Legend:
[1] = tested on: hsp-6::gfp reporter (UPR^mt); assay type: in vivo, Caenorhabditis elegans; details: for UPR^mt activation (hsp-6::gfp reporter): 68 µM, 9-TB at 17 μM; for induction of MSR and in particular mitohormesis: summary of screen of 51 tetracycline derivatives
[2] = tested on: hsp-6::gfp reporter (UPR^mt); assay type: in vivo, Caenorhabditis elegans; details: microfluidic device; relative to Dox and cco-1 RNAi
[3] = tested on: E. coli; assay: Minimum inhibitory concentration (MIC) of bacterial growth; assay type: cell-based; details: compared with Dox
[4] = tested on: P. aeruginosa; assay: as above; assay type: cell-based; details: compared with Dox
[5] = tested on: HEK293T cells; assay: Mitonuclear protein imbalance (MTCO1/ATP5A immunoblot) in HEK293T cells; assay type: cell-based, human; details: 24 hours, stronger than Dox
Description: The mitonuclear protein imbalance may be determined by a disbalanced ratio between a mitochondrial-encoded gene (e.g. MTCO1) versus a nuclear-encoded gene (e.g. ATP5A) of OXPHOS subunits as is illustrated by FIG. 3A.
A. Immunoblots of HEK293T cells for the OXPHOS subunits ATP5A (encoded in nuclear DNA) and MTCO1 (encoded in mitochondrial DNA) with TUBULIN serving as a control. Quantification of the relative MTCO1/ATP5A ratio is shown on the right. […] Statistical analysis was performed by ANOVA followed by Tukey post-hoc test (*p≤0.05, **p≤0.01, ***p≤0.001). Error bars represent standard error mean (SEM).
HEK293T (Human embryonic kidney 293T) cells were purchased from ATCC and have been routinely checked in the laboratory for mycoplasma contamination with the MycoProbe detection kit (R&D systems). […]
Tissues and cells were lysed using RIPA buffer (50 mM Tris-HCl pH 7.4, 150 mM NaCl, 1% NP-40, 0.5% Na-deoxycholate, 0.1% SDS, 2 mM EDTA, and 50 mM NaF) supplemented with protease and phosphatase inhibitor cocktails (Roche/Thermo Fisher Scientific). […] Protein concentration was determined by the Lowry method. […] Samples were analyzed by immunoblotting using standard procedures.

[6] = tested on: HEK293T cells; assay: Oxygen consumption rate in HEK293T cells (Seahorse XF96); assay type: cell-based, human; details: 24 h, compared with Dox
Description: B. Oxygen consumption rate of HEK293T cells exposed to different concentrations of Dox, 9-TB, or ATc (n=8). […] Error bars represent standard error mean (SEM).
HEK293T (Human embryonic kidney 293T) cells were purchased from ATCC and have been routinely checked in the laboratory for mycoplasma contamination with the MycoProbe detection kit (R&D systems). HEK293T were grown at 37° C. in a humidified atmosphere of 5% CO2/95% air in DMEM medium with 4.5 g/L glucose (Gibco) including 10% FBS (Gibco), 1× nonessential amino acids (Invitrogen) and 5 mM penicillin/streptomycin (Invitrogen). Cells were treated for 24 h with the indicated doses of compounds 24 hours after seeding. Oxygen consumption rate was measured with the Seahorse XF96 instrument (Seahorse Bioscience) according to the manufacturer's protocol.

[7] = tested on: HEK293T cells; assay: MSR gene transcripts by RT-qPCR in HEK293T cells; assay type: cell-based, human; details: 24 h, compared with Dox
Description: Transcript levels of the indicated MSR genes measured by RT-qPCR (n=4).
HEK293T (Human embryonic kidney 293T) cells were purchased from ATCC and have been routinely checked in the laboratory for mycoplasma contamination with the MycoProbe detection kit (R&D systems). HEK293T were grown at 37° C. in a humidified atmosphere of 5% CO2/95% air in DMEM medium with 4.5 g/L glucose (Gibco) including 10% FBS (Gibco), 1× nonessential amino acids (Invitrogen) and 5 mM penicillin/streptomycin (Invitrogen). Cells were treated for 24 h with the indicated doses of compounds 24 hours after seeding.
RNA from cells and tissues was extracted using TRIzol and then reverse-transcribed into cDNA by the QuantiTect Reverse Transcription Kit (Qiagen) following the manufacturer's instructions. The qPCR reactions were performed using the LightCycler 480 II system and SYBR Green qPCR Master mix (Roche). All results are presented relative to the mean of housekeeping genes (ΔΔCt method). All mRNA expression levels were corrected for expression of the housekeeping gene 36B4 or Actb for samples of mouse origin, ACTB for samples of human origin.

[8] = tested on: mouse bone marrow derived macrophages (BMDM); assay: ISG and MSR gene transcripts by RT-qPCR in BMDM; assay type: cell-based; details: 24 hours, 9-TB 1.88 μg/ml, ATc 3.75 and 7.5 μg/ml vs Dox 7.5-15 μg/ml
[9] = tested on: mouse bone marrow derived macrophages (BMDM); assay: IFNβ measurement in BMDM culture medium (ELISA); assay type: cell-based; details: for secretion of IFNβ: 24 hours, 9-TB 1.88 μg/ml, ATc 3.75 and 7.5 μg/ml vs Dox 7.5-15 μg/ml
[10] = tested on: IFV H1N1 PR8 strain; assay: IFV infection in BALB/cN mice, 175 PFU, preventive treatment; assay type: in vivo, mouse; details: for survival (mice recovering): Dox 40 mpkd or 9-TB 1 mpkd daily i.p., all control mice dead by day 11
[11] = tested on: IFV H1N1 PR8 strain; assay: IFV infection in BALB/cN mice, 1000 PFU, preventive treatment; assay type: in vivo, mouse; details: Dox 50 mpkd
[12] = tested on: IFV H1N1 PR8 strain; assay: IFV infection in BALB/cN mice, 760 PFU, therapeutic treatment; assay type: in vivo, mouse; details: 9-TB 0.025 and 0.05 mpkd from day 1 post-inoculation, trend, not significant
Source text: A. Comparison of bacterial community composition by nonmetric multidimensional scaling (NMDS) based on the Bray-Curtis dissimilarity. B. Comparison of bacterial species diversity in terms of Shannon diversity index (SDI) and richness. Statistical significance assessed by Kruskal-Wallis test and post-hoc Wilcoxon test with p-value adjusted for multiple comparison using the Holm-Bonferroni method. ‘****’: p<0.0001, ‘***’: p<0.001, ‘**’: p<0.01, ‘*’: p<0.05, ‘ns’: p>0.05. C-D. 8-weeks old BALB/cN mice (n=12) were infected intranasally with 760 PFU of IFV-A H1N1 PR8 and injected with 9-TB (0.05, 0.025 mpkd). Survival (C) and clinical score (D) were followed for 14 days post-infection (n=12). Statistical analysis was performed by ANOVA followed by Tukey post-hoc test (*p≤0.05, **p≤0.01, ***p≤0.001). For survival curves, statistical analysis was performed by Log-rank (Mantel-Cox) test (*p≤0.05, **p≤0.01, ***p≤0.001). Error bars represent standard error mean (SEM).
A. Descriptive scheme of the mouse IFV infection experiment depicted in FIG. 5C-D, S5B. B. 8-weeks old BALB/cN mice (n=12) were infected intranasally with 760 PFU of IFV-A H1N1 PR8 and injected with 9-TB (0.05, 0.025 mpkd). Body weight was followed for 14 days post-inoculation (n=12). C. […]

[13] = tested on: gut bacterial community; details: Dox 40 mpkd; for gut bacterial community composition (perMANOVA, NMDS): after 3 and 6 days of treatment, 9-TB 1 mpkd, vs untreated mice
[14] = tested on: IFV-A H1N1 PR8 infected BALB/cN mice; assay: RNA-Seq and GSEA of lung, liver and kidney of IFV infected mice (175 PFU, day 7)
[15] = tested on: germ-free C57BL/6J mice; assay type: in vivo, mouse; details: Dox 500 mpkd in drinking water, 16 days, vs control
Source text: B. Volcano plots displaying-log(adj. p-value) and the log fold change (FC) in expression of genes in kidney and liver. Above the graph, the number of differentially expressed genes is indicated (genes with adjusted p value (adj.pval)<0.05). C. […] E. Immunoblots of phosphorylated elF2α (pelF2α) and total elF2α and quantification in liver of Dox-treated germ-free mice.
Body weight at the time of the sacrifice was not different between the control and Dox-treated animals (FIG. 7A), indicating the absence of obvious adverse effects. […] Dox elicited organ-specific transcriptional responses, with the expression of remarkably more genes and different being affected in the kidney compared to the liver (FIG. 7B-C). […] The MSR features the induction of mitochondrial chaperones and proteases, such as Hspa9 and Lonp1, as well as of enzymes mediating adaptation to nutrient deprivation, such as asparagine synthetase (ASNS), which were increased at both the transcript and protein levels (FIG. 1C-D). […] Dox-treated germ-free mice kidneys thus gathered the typical attributes of the ATF4-ISR, a hallmark of the mammalian response to mitochondrial stress.
Male 9 weeks-old C57BL/6J mice were treated for 16 days with 500 mg/kg/day doxycycline hyclate (Sigma) in drinking water. Mice were housed with ad libitum access to water and food and kept under a 12-hour dark/12-hour light cycle. […]

Row | Compound | UPR^mt activation (hsp-6::gfp reporter) [1] | induction of MSR and in particular mitohormesis [1] | UPR^mt induction, dose-response (GFP signal) [2] | MIC for E. coli [3] | MIC for P. aeruginosa [4] | impact on the mitonuclear protein imbalance [5] | basal oxygen consumption rate (OCR) [6] | induction of transcripts for the mammalian MSR signature genes [7] | induction of the ISGs and MSR genes [8] | secretion of IFNβ [9] | survival (mice recovering) [10] | gut bacterial community composition (perMANOVA, NMDS) [13] | further results
1 | C[C@H]1c2ccc(C(C)(C)C)c(O)c2C(O)=C2C(=O)[C@]3(O)C(O)=C(C(N)=O)C(=O)[C@@H](N(C)C)[C@@H]3[C@@H](O)[C@@H]21 [9-TB, 9-tert-butyl-doxycycline] | strongest activators | strongest inducer of MSR | more efficacious at lower doses; also recorded: surpassing the robust UPR^mt caused by cco-1 RNAi feeding | significantly higher MIC | significantly higher MIC | ~2 fold | reduced basal oxygen consumption rate (OCR) in a dose-dependent and more pronounced fashion than Dox | more prominent | superior to Dox | superior to Dox | 50% | no differences were observed | viral titer in the lung tissue ([10]; day 7 post infection, Dox 40 mpkd, 9-TB 1 mpkd): no significant difference in viral titer; mortality and decline in health ([11]; 9-TB 12.5 mpkd i.p.): delayed mortality; viral titer in the lungs ([11]; day 5 post-infection, 9-TB 12.5 mpkd): absence of an impact on the viral titer; survival [12]: 20%; inflammatory and immune-related terms in the lungs (GSEA) ([14]; 9-TB 1 mpkd vs control IFV-infected): significantly down-regulated; immune-related and inflammatory gene sets in liver and kidney (GSEA) ([14]; 9-TB 1 mpkd, Dox 40 mpkd): down-regulated; lung cell type transcript profiles (GSEA) ([14]; 9-TB 1 mpkd, Dox 40 mpkd): reverted the loss of multiple cell types crucial to lung function
2 | Cc1c2c(c(O)c3c(O)cccc13)C(=O)[C@]1(O)C(=O)C(C(N)=O)=C(O)[C@@H](N(C)C)[C@@H]1C2 [ATc, anhydrotetracycline] | strongest activators | strongly induce MSR | more efficacious at lower doses | – | – | ~2 fold | reduced basal oxygen consumption rate (OCR) in a dose-dependent and more pronounced fashion than Dox | more prominent | superior to Dox | superior to Dox | – | – | –
3 | Nc1ccn([C@H]2CC[C@@H](CO)O2)c(=O)n1 [ddC, 2′,3′-dideoxycytidine, reference compound] | – | – | – | – | – | – | – | – | – | – | – | – | effect on Dox-induced secretion of IFNβ ([9]; ddC 100 μM for 72 hours, Dox 30 μg/ml for 14 hours): abrogated
4 | C[C@H]1c2cccc(O)c2C(=O)C2=C(O)[C@]3(O)C(=O)C(C(N)=O)=C(O)[C@@H](N(C)C)[C@@H]3[C@@H](O)[C@@H]21 [Dox, doxycycline] | – | – | – | – | – | – | – | – | – | – | 50% | significant difference in composition | Body weight at the time of the sacrifice [15]: not different; bacterial species diversity (Shannon diversity index and richness) [13]: lower bacterial species diversity; gene sets involved in cytopathic processes and fibrosis in liver and kidney ([14]; Dox 40 mpkd): induced
5 | CN(C)[C@@H]1C(O)=C(C(N)=O)C(=O)[C@@]2(O)C(O)=C3C(=O)c4c(O)ccc(Br)c4C[C@H]3C[C@@H]12 [7-bromo sancycline] | – | strongly induce MSR | – | significantly higher MIC | significantly higher MIC | – | – | – | – | – | – | – | –
